Data reported in US12502362B2, “Inhibitors of nucleotidyltransferase superfamily enzymes as antibiotics” (priority 2017, dated 2025).
Values after ≈ are worked out from the molar mass of the structure shown. Like-named read-outs stand apart in the source and are kept apart here.

Tests used:
[1] = Cytotoxicity assay (CC50), MTS; format: cell-based, human; details: human, HepG2-derived hepatoblastoma cell line (HEPDES19), HEPDES19 cells
Description: (§1) To further characterize the compounds, the minimal inhibitory concentration (MIC80) were determined for selected compounds. MIC80 is defined as the compound concentration at which ≥80% bacterial growth is inhibited compare to untreated controls. Meanwhile, for the selected compounds, cytotoxicity assays (CC50) were performed on a HepG2-derived hepatoblastoma cell line (HEPDES19). […] For CC50 evaluation, soluble tetrazolium dye (MTS) was used to measure mitochondrial toxicity in a human hepatoblastoma cell line (18). The bacteria (E. coli, S. saprophyticus and A. baumannii) used in MIC80 measurements were the same as that in the primary screening, but for Staphylococcus, S. aureus is used primarily because it is a common pathogen in Staphylococcaeae family, while S. saprophyticus is part of the normal human flora.

E. coli (ATCC 35218) = experiment: microbe, parasite or virus in culture; format: cell-based; details: for MIC80: Escherichia coli, ATCC35218, read-out: MIC80 E. coli, E. coli ATCC 35218; for MIC80 E. coli: E. coli ATCC 35218
Description: as §1

[2] = tested on: Acinetobacter baumannii (Abl, from a patient); experiment: microbe, parasite or virus in culture; format: cell-based; details: for MIC80 A. baumannii: A. baumannii Ab1, MDR patient isolate; for MIC80: Acinetobacter baumannii, read-out: MIC80 A. baumannii, A. baumannii Ab1, MDR patient isolate
Description: as §1

S. aureus (ATCC 29213) = experiment: MIC80 on S. aureus; format: cell-based, Staphylococcus aureus; details: ≥80% growth inhibition; for MIC80: Staphylococcus aureus, ATCC 29213 / MSSA, read-out: MIC80 S. aureus, S. aureus ATCC 29213 (MSSA); for MIC80 S. aureus: S. aureus ATCC 29213 (MSSA)
Description: as §1

[3] = tested on: S. aureus and/or S. saprophyticus; experiment: MIC80 on S. aureus and/or S. saprophyticus; format: cell-based; details: read-out: MIC80 against S. aureus and/or S. saprophyticus
Description: as §1, with “(HEPDES19). […] For the MIC80 measurements, a 1.5 fold dilution series of the compounds was prepared in Mueller-Hinton II broth.” for “(HEPDES19).”, “flora. S. aureus (ATCC 29213) is methicillin-sensitive Staphylococcus aureus (MSSA) strain and it was used as a model strain to measure the MIC80.” for “flora.”

[4] = tested on: HepG2-derived hepatoblastoma cell line (HEPDES19); experiment: Cytotoxicity assay (CC50), MTS; format: cell-based, human; details: HEPDES19 cells
Description: as §1

[5] = tested on: Staphylococcus saprophyticus (ATCC BAA-750); experiment: MIC80 on S. saprophyticus; format: cell-based; details: Staphylococcus saprophyticus, ATCCBAA750; S. saprophyticus ATCC BAA-750; read-out: MIC80 S. sapro
Description: as §1

[6] = tested on: S. aureus ATCC strains and MRSA; format: cell-based, Staphylococcus aureus
[7] = tested on: Coagulase negative Staphylococcus; experiment: Antibiotic susceptibility of coagulase negative Staphylococcus strains; format: cell-based
Staphylococcus hominis = format: cell-based
Description: (§2) It was also tested whether compounds #63 and #285 can inhibit other coagulase-negative Staphylococcus (CNS) including S. epidermidis, S. hominis, etc. […].

[8] = tested on: Staphylococcus epidermidis; format: cell-based
Description: as §2

## Cc1cc(O)c(O)c(=O)c(O)c1 [Compound 272]
[1]
  CC50: 10 µM
E. coli (ATCC 35218)
  MIC80: 44.4 µM (≈ 7.47 µg/mL)
[2]
  MIC80 A. baumannii: 29.6 µM (≈ 4.98 µg/mL)
  MIC80: < 30 µM

## O=C(Oc1cccccc1=O)c1cccc(Cl)c1 [Compound 282]
[1]
  CC50: > 50 µM
S. aureus (ATCC 29213)
  MIC80: 18.2 µM (≈ 4.74 µg/mL)
[3]
  MIC80: < 20 µM
E. coli (ATCC 35218)
  MIC80: > 100 µM

## Cc1cccc(C(=O)Oc2cccccc2=O)c1 [Compound 283]
[1]
  CC50: > 50 µM
[4]
  CC50: ≥ 100 µM
S. aureus (ATCC 29213)
  MIC80: 15.4 µM (≈ 3.7 µg/mL)
[3]
  MIC80: < 20 µM
E. coli (ATCC 35218)
  MIC80: > 100 µM

## Cc1cc(O)c(=O)c(O)cc1C(=O)c1cccs1 [Compound 308]
[1]
  CC50: < 50 µM
[4]
  CC50: 26 µM
S. aureus (ATCC 29213)
  MIC80: 44.4 µM (≈ 11.6 µg/mL)
E. coli (ATCC 35218)
  MIC80 E. coli: 24.7 µM (≈ 6.48 µg/mL)
  MIC80: < 30 µM
[2]
  MIC80: 32.1 µM (≈ 8.42 µg/mL)
[5]
  MIC80: 29.6 µM (≈ 7.76 µg/mL)

## Cc1cc(O)c(=O)c(O)cc1C(=O)C1CC1 [Compound 310]
[1]
  CC50: > 50 µM
E. coli (ATCC 35218)
  MIC80 E. coli: 29.6 µM (≈ 6.52 µg/mL)
  MIC80: < 30 µM
[2]
  MIC80 A. baumannii: 29.6 µM (≈ 6.52 µg/mL)
  MIC80: < 30 µM
[5]
  MIC80: 44.4 µM (≈ 9.78 µg/mL)

## Cc1cc(O)c(=O)c(O)cc1C(=O)c1ccccc1O [Compound 311]
[1]
  CC50: < 50 µM
[4]
  CC50: 32 µM
S. aureus (ATCC 29213)
  MIC80: 66.7 µM (≈ 18.2 µg/mL)
E. coli (ATCC 35218)
  MIC80 E. coli: 29.6 µM (≈ 8.06 µg/mL)
  MIC80: < 30 µM
[2]
  MIC80: 44.4 µM (≈ 12.1 µg/mL)

## CC(=O)c1c(C)cc(O)c(=O)c(O)c1-c1ccc2ccccc2c1 [Compound 332]
[4]
  CC50: 38 µM
S. aureus (ATCC 29213)
  MIC80 S. aureus: 19.8 µM (≈ 6.34 µg/mL)

## O=c1c(Br)cc(Br)cc(Br)c1O [Compound 350]
[1]
  CC50: < 50 µM
[4]
  CC50: 45 µM
S. aureus (ATCC 29213)
  MIC80: 2.6 µM (≈ 0.933 µg/mL)
[3]
  MIC80: < 20 µM
E. coli (ATCC 35218)
  MIC80: 100 µM (≈ 35.9 µg/mL)
[2]
  MIC80: 100 µM (≈ 35.9 µg/mL)

## O=C(O)c1cn(Cc2cccc3ccccc23)c2ccccc2c1=O [Compound 432]
S. aureus (ATCC 29213)
  MIC80: 13.2 µM (≈ 4.35 µg/mL)
[3]
  MIC80: < 20 µM

## O=C(Cc1ccccc1)Sc1cccccc1=O [Compound 680]
[4]
  CC50: > 100 µM
S. aureus (ATCC 29213)
  MIC80 S. aureus: 29.6 µM (≈ 7.59 µg/mL)
E. coli (ATCC 35218)
  MIC80 E. coli: 19.8 µM (≈ 5.08 µg/mL)

## O=C(Sc1cccccc1=O)c1ccc(C(F)(F)F)cc1 [Compound 682]
[4]
  CC50: 82.9 µM
S. aureus (ATCC 29213)
  MIC80 S. aureus: 19.8 µM (≈ 6.14 µg/mL)
E. coli (ATCC 35218)
  MIC80 E. coli: 66.7 µM (≈ 20.7 µg/mL)

## Cc1ccc(S(=O)(=O)Oc2cc(C(C)C)cccc2=O)cc1 [Compound 688]
[4]
  CC50: 27.5 µM
S. aureus (ATCC 29213)
  MIC80 S. aureus: 11.6 µM (≈ 3.69 µg/mL)
E. coli (ATCC 35218)
  MIC80 E. coli: >100 µM

## CN[C@H](CC(C)C)C(=O)N[C@H]1C(=O)N[C@@H](CC(N)=O)C(=O)N[C@H]2C(=O)N[C@H]3C(=O)N[C@H](C(=O)N[C@H](C(=O)O)c4cc(O)cc(O)c4-c4cc3ccc4O)[C@H](O)c3ccc(c(Cl)c3)Oc3cc2cc(c3O[C@@H]2O[C@H](CO)[C@@H](O)[C@H](O)[C@H]2O[C@H]2C[C@](C)(N)[C@H](O)[C@H](C)O2)Oc2ccc(cc2Cl)[C@H]1O [VAN, vancomycin]
[6]; S. aureus ATCC 25923
  Antibiotic susceptibility: S
[6]; S. aureus ATCC 29213
  Antibiotic susceptibility: S
[6]; S. aureus ATCC BAA 976
  Antibiotic susceptibility: S
[6]; S. aureus ATCC BAA 977
  Antibiotic susceptibility: S
[6]; S. aureus ATCC BAA 1026
  Antibiotic susceptibility: S
[6]; Sa1 (MRSA)
  Antibiotic susceptibility: S
[6]; Sa2 (MRSA)
  Antibiotic susceptibility: S
[6]; Sa3 (MRSA)
  Antibiotic susceptibility: S
[6]; Sa5 (MRSA)
  Antibiotic susceptibility: S
[6]; Sa6 (MRSA)
  Antibiotic susceptibility: S
[6]; Sa7 (MRSA)
  Antibiotic susceptibility: S
[6]; Sa8 (MRSA)
  Antibiotic susceptibility: S
[6]; Sa9 (MRSA)
  Antibiotic susceptibility: S
[6]; Sa10 (MRSA)
  Antibiotic susceptibility: S
[6]; Sa11 (MRSA)
  Antibiotic susceptibility: S
[6]; Sa12 (MRSA)
  Antibiotic susceptibility: S
[6]; Sa14 (MRSA)
  Antibiotic susceptibility: S
[6]; Sa15 (MRSA)
  Antibiotic susceptibility: S
[6]; Sa16 (MRSA)
  Antibiotic susceptibility: S
[6]; Sa17 (MRSA)
  Antibiotic susceptibility: S
[6]; Sa18 (MRSA)
  Antibiotic susceptibility: S
[6]; Sa19 (MRSA)
  Antibiotic susceptibility: S
[6]; Sa20 (MRSA)
  Antibiotic susceptibility: S
[6]; Sa21 (MRSA)
  Antibiotic susceptibility: S
[6]; Sa22 (MRSA)
  Antibiotic susceptibility: S
[6]; Sa23 (MRSA)
  Antibiotic susceptibility: S
[7]; CNS1 (Coagulase negative Staphylococcus)
  Antibiotic susceptibility: S
[7]; CNS2 (Coagulase negative Staphylococcus)
  Antibiotic susceptibility: S
Staphylococcus hominis; Sh1 (Staphylococcus hominis)
  Antibiotic susceptibility: S
Staphylococcus hominis; Sh2 (Staphylococcus hominis)
  Antibiotic susceptibility: S
Staphylococcus hominis; Sh3 (Staphylococcus hominis)
  Antibiotic susceptibility: S
[8]; Se1 (Staphylococcus epidermidis)
  Antibiotic susceptibility: S
[8]; Se2 (Staphylococcus epidermidis)
  Antibiotic susceptibility: S
[8]; Se3 (Staphylococcus epidermidis)
  Antibiotic susceptibility: S
[8]; Se4 (Staphylococcus epidermidis)
  Antibiotic susceptibility: S
[8]; Se5 (Staphylococcus epidermidis)
  Antibiotic susceptibility: S
